According to PubChem BioAssay (NCI):
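Values below derive from 48-hour exposures of cells grown in 96-well plates, with endpoints linearly interpolated between the two concentrations bracketing the appropriate inhibition level. The concentration for 50% growth inhibition is given as GI50. TGI marks complete inhibition of growth.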

Columns and labels:
Test in all cases: NCI-60 cell line screen, 48 h
786-0 renal = tested on: 786-0 renal
UO-31 renal = tested on: UO-31 renal
DU-145 prostate = tested on: DU-145 prostate
IGROV1 ovarian = tested on: IGROV1 ovarian
NCI-H522 lung = tested on: NCI-H522 lung
EKVX NSCLC = tested on: EKVX NSCLC
RXF 393 renal = tested on: RXF 393 renal
SF-268 CNS = tested on: SF-268 CNS
A498 renal = tested on: A498 renal
HT29 colon = tested on: HT29 colon
T-47D breast = tested on: T-47D breast
KM12 colon = tested on: KM12 colon
CAKI-1 renal = tested on: CAKI-1 renal
SF-539 CNS = tested on: SF-539 CNS
MDA-MB-435 = tested on: MDA-MB-435
M14 melanoma = tested on: M14 melanoma
HOP-92 NSCLC = tested on: HOP-92 NSCLC
ACHN renal = tested on: ACHN renal
U251 CNS = tested on: U251 CNS
K-562 leukemia = tested on: K-562 leukemia
SK-MEL-28 melanoma = tested on: SK-MEL-28 melanoma
SNB-75 CNS = tested on: SNB-75 CNS
CCRF-CEM leukemia = tested on: CCRF-CEM leukemia
SR leukemia = tested on: SR leukemia
MOLT-4 leukemia = tested on: MOLT-4 leukemia
A549 NSCLC = tested on: A549 NSCLC
UACC-257 melanoma = tested on: UACC-257 melanoma
HCT-116 colon = tested on: HCT-116 colon
NCI/ADR-RES ovarian = tested on: NCI/ADR-RES ovarian
HS 578T breast = tested on: HS 578T breast
NCI-H23 lung = tested on: NCI-H23 lung
RPMI-8226 leukemia = tested on: RPMI-8226 leukemia
NCI-H226 lung = tested on: NCI-H226 lung
TK-10 renal = tested on: TK-10 renal
COLO 205 colon = tested on: COLO 205 colon
SK-MEL-5 melanoma = tested on: SK-MEL-5 melanoma
UACC-62 melanoma = tested on: UACC-62 melanoma
BT-549 breast = tested on: BT-549 breast
HCC-2998 colon = tested on: HCC-2998 colon
SW-620 colon = tested on: SW-620 colon
SF-295 CNS = tested on: SF-295 CNS
HL-60(TB) leukemia = tested on: HL-60(TB) leukemia
SK-MEL-2 melanoma = tested on: SK-MEL-2 melanoma
SNB-19 CNS = tested on: SNB-19 CNS
MALME-3M melanoma = tested on: MALME-3M melanoma
HOP-62 NSCLC = tested on: HOP-62 NSCLC
HCT-15 colon = tested on: HCT-15 colon
PC-3 prostate = tested on: PC-3 prostate
LOX IMVI melanoma = tested on: LOX IMVI melanoma
MDA-MB-231 breast = tested on: MDA-MB-231 breast
SN12C renal = tested on: SN12C renal
OVCAR-3 ovarian = tested on: OVCAR-3 ovarian
OVCAR-4 ovarian = tested on: OVCAR-4 ovarian
OVCAR-8 ovarian = tested on: OVCAR-8 ovarian
OVCAR-5 ovarian = tested on: OVCAR-5 ovarian
NCI-H460 lung = tested on: NCI-H460 lung
SK-OV-3 ovarian = tested on: SK-OV-3 ovarian

## C=C1C(=O)O[C@H]2[C@H]1CC/C(COC(=O)NCc1[nH]nc3ccccc13)=C\CC[C@@]1(C)O[C@@H]21
786-0 renal
  GI50: 1.72 µM
  TGI: 3.63 µM
UO-31 renal
  GI50: 1.51 µM
  TGI: 2.95 µM
DU-145 prostate
  GI50: 1.24 µM
  TGI: 3.03 µM
IGROV1 ovarian
  GI50: 2.24 µM
  TGI: 9.26 µM
NCI-H522 lung
  GI50: 1.21 µM
  TGI: 2.65 µM
EKVX NSCLC
  GI50: 3.1 µM
  TGI: 13.4 µM
RXF 393 renal
  GI50: 0.719 µM
  TGI: 2.23 µM
SF-268 CNS
  GI50: 5.52 µM
  TGI: 20 µM
A498 renal
  GI50: 12.6 µM
  TGI: 26.3 µM
HT29 colon
  GI50: 1.18 µM
  TGI: 2.69 µM
T-47D breast
  GI50: 1.74 µM
  TGI: 5.43 µM
KM12 colon
  GI50: 4.25 µM
  TGI: 18.1 µM
CAKI-1 renal
  GI50: 1.37 µM
  TGI: 3.91 µM
SF-539 CNS
  GI50: 1.82 µM
  TGI: 4.72 µM
MDA-MB-435
  GI50: 1.64 µM
  TGI: 4.42 µM
M14 melanoma
  GI50: 2.03 µM
  TGI: 5.49 µM
HOP-92 NSCLC
  GI50: 2.03 µM
  TGI: 4.11 µM
ACHN renal
  GI50: 1.11 µM
  TGI: 2.63 µM
U251 CNS
  GI50: 3.16 µM
  TGI: 13.7 µM
K-562 leukemia
  GI50: 0.473 µM
  TGI: 17.5 µM
SK-MEL-28 melanoma
  GI50: 1.69 µM
  TGI: 3.7 µM
SNB-75 CNS
  GI50: 5.06 µM
  TGI: 21.1 µM
CCRF-CEM leukemia
  GI50: 0.337 µM
  TGI: 2.51 µM
SR leukemia
  GI50: 0.27 µM
  TGI: 2.89 µM
MOLT-4 leukemia
  GI50: 1.71 µM
  TGI: 5.97 µM
A549 NSCLC
  GI50: 8.61 µM
  TGI: 25.7 µM
UACC-257 melanoma
  GI50: 2.13 µM
  TGI: 5.01 µM
HCT-116 colon
  GI50: 0.839 µM
  TGI: 2.53 µM
NCI/ADR-RES ovarian
  GI50: 6.22 µM
  TGI: 22.5 µM
HS 578T breast
  GI50: 4.35 µM
  TGI: 27.1 µM
NCI-H23 lung
  GI50: 2.19 µM
  TGI: 7.24 µM
RPMI-8226 leukemia
  GI50: 0.437 µM
  TGI: 2.98 µM
NCI-H226 lung
  GI50: 16.3 µM
  TGI: 33.7 µM
TK-10 renal
  GI50: 1.82 µM
  TGI: 3.49 µM
COLO 205 colon
  GI50: 1.27 µM
  TGI: 2.93 µM
SK-MEL-5 melanoma
  GI50: 2.73 µM
  TGI: 10.5 µM
UACC-62 melanoma
  GI50: 1.56 µM
  TGI: 3.67 µM
BT-549 breast
  GI50: 2.86 µM
  TGI: 8.93 µM
HCC-2998 colon
  GI50: 2.78 µM
  TGI: 8.97 µM
SW-620 colon
  GI50: 0.596 µM
  TGI: 2.28 µM
SF-295 CNS
  GI50: 7.24 µM
  TGI: 21.8 µM
HL-60(TB) leukemia
  GI50: 0.458 µM
  TGI: 2.73 µM
SK-MEL-2 melanoma
  GI50: 4.11 µM
  TGI: 15.5 µM
SNB-19 CNS
  GI50: 5.31 µM
  TGI: 19.6 µM
MALME-3M melanoma
  GI50: 2.06 µM
  TGI: 4.24 µM
HOP-62 NSCLC
  GI50: 9.72 µM
  TGI: 23.4 µM
HCT-15 colon
  GI50: 1.07 µM
  TGI: 2.64 µM
PC-3 prostate
  GI50: 1.67 µM
  TGI: 5.79 µM
LOX IMVI melanoma
  GI50: 1.05 µM
  TGI: 2.43 µM
MDA-MB-231 breast
  GI50: 1.64 µM
  TGI: 3.34 µM
SN12C renal
  GI50: 1.68 µM
  TGI: 4.64 µM
OVCAR-3 ovarian
  GI50: 1.06 µM
  TGI: 2.38 µM
OVCAR-4 ovarian
  GI50: 4.06 µM
  TGI: 17.5 µM
OVCAR-8 ovarian
  GI50: 2.67 µM
  TGI: 12.3 µM
OVCAR-5 ovarian
  GI50: 2.59 µM
  TGI: 6.14 µM
NCI-H460 lung
  GI50: 3.9 µM
  TGI: 15.5 µM
SK-OV-3 ovarian
  GI50: 11.8 µM
  TGI: 24.4 µM

## CC1=C(C(=O)Nc2ccc(Cl)c(Cl)c2)C(c2ccccc2Cl)NC(=S)N1 (stereo not drawn)
786-0 renal
  GI50: 10.2 µM
  TGI: 20 µM
UO-31 renal
  GI50: 8.06 µM
  TGI: 16.7 µM
DU-145 prostate
  GI50: 11.9 µM
  TGI: > 50 µM
IGROV1 ovarian
  GI50: 22.5 µM
  TGI: > 50 µM
NCI-H522 lung
  GI50: 13.6 µM
  TGI: 24.9 µM
EKVX NSCLC
  GI50: 9.09 µM
  TGI: 19 µM
SF-268 CNS
  GI50: 5.62 µM
  TGI: 12.5 µM
T-47D breast
  GI50: 18.9 µM
  TGI: > 50 µM
KM12 colon
  GI50: 8.71 µM
  TGI: 17.6 µM
CAKI-1 renal
  GI50: 9.85 µM
  TGI: 21.5 µM
MDA-MB-435
  GI50: 8.08 µM
  TGI: 16.2 µM
M14 melanoma
  GI50: 11.6 µM
  TGI: 26.9 µM
HOP-92 NSCLC
  GI50: 1.15 µM
  TGI: 9.02 µM
ACHN renal
  GI50: 10.9 µM
  TGI: 25.2 µM
U251 CNS
  GI50: 11.9 µM
  TGI: 26.8 µM
K-562 leukemia
  GI50: 11 µM
  TGI: > 50 µM
SNB-75 CNS
  GI50: 5.48 µM
  TGI: 29.2 µM
SR leukemia
  GI50: 11.7 µM
  TGI: > 50 µM
MOLT-4 leukemia
  GI50: 8.92 µM
  TGI: > 50 µM
A549 NSCLC
  GI50: 24.1 µM
  TGI: > 50 µM
UACC-257 melanoma
  GI50: 14.5 µM
  TGI: 26.8 µM
HCT-116 colon
  GI50: 6.23 µM
  TGI: 12.5 µM
NCI/ADR-RES ovarian
  GI50: 9.62 µM
  TGI: 19.7 µM
HS 578T breast
  GI50: 6.38 µM
  TGI: 13.9 µM
RPMI-8226 leukemia
  GI50: 4.18 µM
  TGI: 24 µM
NCI-H226 lung
  GI50: 10.1 µM
  TGI: 25.7 µM
TK-10 renal
  GI50: 10.1 µM
  TGI: 22.6 µM
COLO 205 colon
  GI50: 8.01 µM
  TGI: 22.2 µM
SK-MEL-5 melanoma
  GI50: 7.96 µM
  TGI: 15.1 µM
UACC-62 melanoma
  GI50: 8.01 µM
  TGI: 18.9 µM
BT-549 breast
  GI50: 39.4 µM
  TGI: > 50 µM
SW-620 colon
  GI50: 10.8 µM
  TGI: 24.4 µM
SF-295 CNS
  GI50: 9.46 µM
  TGI: 22 µM
HL-60(TB) leukemia
  GI50: 15.4 µM
  TGI: > 50 µM
SK-MEL-2 melanoma
  GI50: 14.6 µM
  TGI: 25.2 µM
SNB-19 CNS
  GI50: 0.695 µM
  TGI: 12.8 µM
HOP-62 NSCLC
  GI50: 12.4 µM
  TGI: 22.7 µM
HCT-15 colon
  GI50: 7.8 µM
  TGI: 19 µM
PC-3 prostate
  GI50: 8.08 µM
  TGI: 23.3 µM
LOX IMVI melanoma
  GI50: > 50 µM
  TGI: > 50 µM
MDA-MB-231 breast
  GI50: 7.15 µM
  TGI: 17.3 µM
SN12C renal
  GI50: 8.53 µM
  TGI: 15.8 µM
OVCAR-3 ovarian
  GI50: 10.5 µM
  TGI: 20.6 µM
OVCAR-4 ovarian
  GI50: 23.6 µM
  TGI: > 50 µM
OVCAR-5 ovarian
  GI50: 13.6 µM
  TGI: 41.9 µM
NCI-H460 lung
  GI50: 6.58 µM
  TGI: 13.7 µM
SK-OV-3 ovarian
  GI50: 12.5 µM
  TGI: > 50 µM
